Reference: ChEMBL document CHEMBL1158243, “Hydroxycornexistin: A New Phytotoxin from Paecilomyces variotii” (J Nat Prod, 1996)
The source made the active and inactive calls. The rule behind the calls is not given here.

What was measured:
Assay type in all cases: functional, organism-based
[1] = test system: Fallopia convolvulus; assay: Herbicidal activity against Fallopia convolvulus assessed as plant death at 31.25 ppm after 2 weeks
[2] = test system: Ipomoea hederacea; assay: Herbicidal activity against Ipomoea hederacea assessed as plant death at 7.81 ppm after 2 weeks
[3] = test system: Amaranthus; assay: Herbicidal activity against Amaranthus sp. assessed as plant death at 7.81 ppm after 2 weeks
[4] = test system: Zea mays; assay: Herbicidal activity against Zea mays assessed as plant death at 15.63 ppm after 2 weeks
[5] = test system: Fallopia convolvulus; assay: Herbicidal activity against Fallopia convolvulus assessed as plant death at 15.63 ppm after 2 weeks
[6] = test system: Sorghum bicolor; assay: Herbicidal activity against Sorghum bicolor assessed as plant death at 15.63 ppm after 2 weeks
[7] = test system: Echinochloa crus-galli; assay: Herbicidal activity against Echinochloa crus-galli assessed as plant death at 7.81 ppm after 2 weeks
[8] = test system: Ipomoea hederacea; assay: Herbicidal activity against Ipomoea hederacea assessed as plant death at 15.63 ppm after 2 weeks
[9] = test system: Xanthium strumarium; assay: Herbicidal activity against Xanthium strumarium assessed as plant death at 31.25 ppm after 2 weeks
[10] = test system: Sorghum bicolor; assay: Herbicidal activity against Sorghum bicolor assessed as plant death at 7.81 ppm after 2 weeks
[11] = test system: Setaria faberi; assay: Herbicidal activity against Setaria faberi assessed as plant death at 7.81 ppm after 2 weeks
[12] = test system: Sorghum bicolor; assay: Herbicidal activity against Sorghum bicolor assessed as plant death at 31.25 ppm after 2 weeks
[13] = test system: Setaria faberi; assay: Herbicidal activity against Setaria faberi assessed as plant death at 15.63 ppm after 2 weeks
[14] = test system: Zea mays; assay: Herbicidal activity against Zea mays assessed as plant death at 7.81 ppm after 2 weeks
[15] = test system: Avena sativa; assay: Herbicidal activity against Avena sativa assessed as plant death at 7.81 ppm after 2 weeks
[16] = test system: Ipomoea hederacea; assay: Herbicidal activity against Ipomoea hederacea assessed as plant death at 31.25 ppm after 2 weeks
[17] = test system: Avena sativa; assay: Herbicidal activity against Avena sativa assessed as plant death at 15.63 ppm after 2 weeks
[18] = test system: Digitaria sanguinalis; assay: Herbicidal activity against Digitaria sanguinalis assessed as plant death at 7.81 ppm after 2 weeks
[19] = test system: Amaranthus; assay: Herbicidal activity against Amaranthus sp. assessed as plant death at 31.25 ppm after 2 weeks
[20] = test system: Amaranthus; assay: Herbicidal activity against Amaranthus sp. assessed as plant death at 15.63 ppm after 2 weeks
[21] = test system: Xanthium strumarium; assay: Herbicidal activity against Xanthium strumarium assessed as plant death at 7.81 ppm after 2 weeks
[22] = test system: Abutilon theophrasti; assay: Herbicidal activity against Abutilon theophrasti assessed as plant death at 7.81 ppm after 2 weeks
[23] = test system: Avena sativa; assay: Herbicidal activity against Avena sativa assessed as plant death at 31.25 ppm after 2 weeks
[24] = test system: Triticum aestivum; assay: Herbicidal activity against Triticum aestivum assessed as plant death at 15.63 ppm after 2 weeks
[25] = test system: Triticum aestivum; assay: Herbicidal activity against Triticum aestivum assessed as plant death at 7.81 ppm after 2 weeks

## CCC[C@H]1C2=C(C/C(=C/CO)[C@@H](O)CC(=O)[C@H]1O)C(=O)OC2=O
[1]
  Activity: Active
[2]
  Activity: inactive
[3]
  Activity: inactive
[4]
  Activity: inactive
[5]
  Activity: Active
[6]
  Activity: inactive
[7]
  Activity: inactive
[8]
  Activity: inactive
[9]
  Activity: Active
[10]
  Activity: inactive
[11]
  Activity: inactive
[12]
  Activity: inactive
[13]
  Activity: inactive
[14]
  Activity: inactive

## C/C=C1/CC2=C(C(=O)OC2=O)[C@H](CCC)[C@H](O)C(=O)C[C@@H]1O
[15]
  Activity: inactive
[16]
  Activity: inactive
[17]
  Activity: inactive
[2]
  Activity: inactive
[18]
  Activity: inactive
[3]
  Activity: inactive
[19]
  Activity: inactive
[6]
  Activity: inactive
[20]
  Activity: inactive
[7]
  Activity: inactive
[21]
  Activity: inactive
[8]
  Activity: inactive
[22]
  Activity: inactive
[10]
  Activity: inactive
[23]
  Activity: Active
[24]
  Activity: inactive
[25]
  Activity: inactive
[14]
  Activity: inactive
